This assay has as its system HepG2 cells. Briefly: Mitochondrial membrane potential by flow cytometry. Type of assay: cell-based, human. Particulars: HepG2, 1.38 μM (IC50), 48 h. The method, then: Mitochondrial Membrane Potential (MMP) plays a vital role in the initiation of the apoptosis process. Loss of MMP is characteristic of an early stage of apoptosis.
MMP was measured by flow cytometry analysis in HepG2 cells according to the manufacturer’s directions. See Section 3.3.5 in Supplementary Material.
Figure 5 Compound 9 promotes MMP dissipation in HepG2 cells. (A) HepG2 cells were treated with 1.38 μM of compound 9 for 48 h. MMP was quantized using image-based flow cytometry. (B) The quantification of MMP in HepG2 cells after treatment with compound 9 at its IC50 concentration (μM). […]
To measure the cytotoxic activity of the synthesized derivatives 2a-11 in hepatocel-lular carcinoma (HepG2) cell line (ATCC Cat No. HB-8065) as well as normal human liver cell line HL-7702 (ATCC Cat. No. 77402), cell viability assay was assessed using MTT assay method. […] The color inten-sity of the formazan product, which represents the growth condition of the cells, is quan-tified by using an ELISA plate reader (EXL 800, USA) at 570 nm absorbance. […]
Compounds 9, 10 and 11 were evaluated for their tubulin inhibitory activity levels according to the manufacturer’s instructions using # abcam Human Beta-tubulin simplestep […]

Each structure is given as a SMILES string.

In the case of `COc1ccc(C2=N/C(=C\c3cc(OC)c(OC)c(OC)c3)C(=O)NN2c2ccccc2)cc1OC` [Compound 9, (Z)-3-(3,4-Dimethoxyphenyl)-2-Phenyl-5-(3,4,5-Trimethoxybenzylidene)-1,2-Dihydro-1,2,4-Triazin-6(5H)-one], the “decrease in level of MMP compared with negative HepG2 cells” value is 3.12 fold.
